Read-outs that look alike come from different tables or passages of the source. Starred links: 1 amine or outer side, 2 acyl side, 3 side chain; linkers in the order of their positions; H or OH if unused. Non-standard residues stand in square brackets, D forms with d. Residues, ends and D or L forms follow the SMILES beside them. Groups on a side chain read outwards from the residue. *: point of attachment. C20 diacid = O=C(O)CCCCCCCCCCCCCCCCCCC(=O)*; C18 diacid = O=C(O)CCCCCCCCCCCCCCCCC(=O)*; γGlu = O=C(O)[C@H](CCC(=O)[*:2])N[*:1]; AEEA = NCCOCCOCC(=O)O; Aib = CC(C)(N)C(=O)O
How the values were obtained:
[1] = system: rat CRF2R α receptor; assay: cAMP agonism at rat CRF2R α receptor in A7R5 rat aortic smooth muscle cells (Example 8); type: cell-based; conditions: cAMP HTRF, A7R5 rat aortic smooth muscle cell line, 0% HSA
Experimental: Cells were grown in a T175 culture flask placed at 37° C. to near confluence in medium (DMEM/10% FBS) and collected in 2 ml vials in cell culture medium containing 10% DMSO in a concentration of 10-50 million cells/ml. Each vial contained 1.8 ml cells. The vials were slowly frozen to −80° C. in isopropanol and then transferred in liquid nitrogen for storage. Prior to use, frozen cells were thawed quickly at 37° C. and washed (5 min at 900 rpm) with 20 ml cell buffer (1×HBSS; 20 mM HEPES; 0% or 0.1% HSA). Cells were resuspended in assay buffer (cell buffer plus 2 mM IBMX) and adjusted to a cell density of 1 million cells/ml. For measurement, 5 μl cells (final […]) and 5 μL of test compound were added to a 384-well plate, followed by incubation for 30 minutes at room temperature.
The CAMP content of cells was determined using a kit from Cisbio Corp. (cat. no. 62AM4PEC) based on HTRF (Homogenous Time Resolved Fluorescence). After addition of HTRF reagents diluted in lysis buffer (kit components), the plates were incubated for 1 h, followed by measurement of the fluorescence ratio at 665/620 nm. The percent activity value (E %) was calculated by setting 1000 nM of urocortin 2 (UCN2) as 100%. The in vitro potency of the compounds was quantified by determining the concentrations that caused 50% activation of maximal response (EC50).
Using the procedure described in Example 7, the activity of the compounds at the rat CRF2R α receptor was assessed. The A7R5 rat aortic smooth muscle cell line was used in this study.

[2] = target: T1, human CRF2α receptor (Homo sapiens, UniProt Q13324); assay: cAMP agonism at human CRF2 α receptor in TeloHEAC cells (Example 7); type: cell-based; conditions: cAMP HTRF, TeloHEAC cells stably expressing human CRF2 α
T1 construct: expressed in transfected cells; host or cells: TeloHEAC
T1 sequence (Q13324 1-411): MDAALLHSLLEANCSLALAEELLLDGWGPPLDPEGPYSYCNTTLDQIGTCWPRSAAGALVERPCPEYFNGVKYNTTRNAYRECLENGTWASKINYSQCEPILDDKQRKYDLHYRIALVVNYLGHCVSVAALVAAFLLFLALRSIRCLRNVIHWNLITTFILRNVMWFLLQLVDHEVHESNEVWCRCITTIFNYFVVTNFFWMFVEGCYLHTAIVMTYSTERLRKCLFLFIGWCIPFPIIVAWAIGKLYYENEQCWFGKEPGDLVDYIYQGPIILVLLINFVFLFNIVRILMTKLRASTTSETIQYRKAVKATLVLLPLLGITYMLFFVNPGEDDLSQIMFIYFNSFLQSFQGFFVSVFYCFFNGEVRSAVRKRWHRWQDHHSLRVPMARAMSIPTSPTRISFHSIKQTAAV
In short: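 Steps: thaw and wash cells; suspend in 1×HBSS, 20 mM HEPES, 0 or 0.1% HSA, 2 mM IBMX; add compound, 30 min RT; lyse with HTRF reagents, 1 h; read 665/620 nm. EC50 calculated, E% versus 1000 nM UCN2.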

[3] = 0% HSA, read-out: EC50 [nM], 0% HSA
[4] = 0.1% HSA, read-out: EC50 [nM], 0.1% HSA

EC50 [1] [nM] | EC50 [2, 3] [nM] | EC50 [2, 4] [nM] | SMILES
0.83 | 0.03 | 3.49 | CC[C@H](C)[C@H](N)C(=O)N[C@H](C(=O)N[C@@H](CC(C)C)C(=O)N[C@@H](CO)C(=O)N[C@@H](CC(C)C)C(=O)N[C@@H](CC(=O)O)C(=O)N[C@@H](C(=O)N1CCC[C@H]1C(=O)N[C@H](C(=O)N[C@@H](CCCCN)C(=O)N[C@@H](CC(C)C)C(=O)N[C@@H](CCCCNC(=O)COCCOCCNC(=O)COCCOCCNC(=O)CC[C@H](NC(=O)CCCCCCCCCCCCCCCCCCC(=O)O)C(=O)O)C(=O)N[C@@H](CCC(N)=O)C(=O)N[C@H](C(=O)N[C@@H](CC(C)C)C(=O)N[C@@H](CC(C)C)C(=O)N[C@@H](CCCCN)C(=O)N[C@@H](CCC(N)=O)C(=O)N[C@@H](CCC(=O)O)C(=O)N[C@@H](CCCNC(=N)N)C(=O)N[C@@H](CCC(N)=O)C(=O)N[C@@H](CCCCN)C(=O)NC(C)(C)C(=O)N[C@@H](CCC(N)=O)C(=O)N[C@@H](CCCNC(=N)N)C(=O)N[C@@H](CCC(=O)O)C(=O)N[C@@H](CCC(N)=O)C(=O)N[C@@H](C)C(=O)N[C@@H](CCC(=O)O)C(=O)N[C@@H](CCCCN)C(=O)N[C@@H](CC(N)=O)C(=O)N[C@@H](CCCCN)C(=O)N[C@@H](CCC(N)=O)C(=O)N[C@H](C(=O)N[C@@H](CC(C)C)C(=O)N[C@@H](C)C(=O)N[C@@H](CCC(N)=O)C(=O)N[C@H](C(N)=O)C(C)C)[C@@H](C)CC)[C@@H](C)CC)[C@@H](C)CC)C(C)C)C(C)C [compound 173] (H-IVLSLD[dV]PIKLK([AEEA-AEEA-γGlu-C20 diacid])QILLKQERQK[Aib]QREQAEKNKQILAQV-NH2; N-terminus assumed)
0.42 | 0.07 | 0.88 | CC[C@H](C)[C@H](N)C(=O)N[C@H](C(=O)N[C@@H](CC(C)C)C(=O)N[C@@H](CO)C(=O)N[C@@H](CC(C)C)C(=O)N[C@@H](CC(=O)O)C(=O)N[C@@H](C(=O)N1CCC[C@H]1C(=O)N[C@H](C(=O)N[C@@H](CCCCN)C(=O)N[C@@H](CC(C)C)C(=O)N[C@@H](CCCCNC(=O)COCCOCCNC(=O)COCCOCCNC(=O)CC[C@H](NC(=O)CC[C@H](NC(=O)CCCCCCCCCCCCCCCCC(=O)O)C(=O)O)C(=O)O)C(=O)N[C@@H](CCC(N)=O)C(=O)N[C@H](C(=O)N[C@@H](CC(C)C)C(=O)N[C@@H](CC(C)C)C(=O)N[C@@H](CCCCN)C(=O)N[C@@H](CCC(N)=O)C(=O)N[C@@H](C)C(=O)N[C@@H](CCCNC(=N)N)C(=O)N[C@@H](CCC(N)=O)C(=O)N[C@@H](CCCCN)C(=O)NC(C)(C)C(=O)N[C@@H](CCC(N)=O)C(=O)N[C@@H](CCCNC(=N)N)C(=O)N[C@@H](C)C(=O)N[C@@H](CCC(N)=O)C(=O)N[C@@H](C)C(=O)N[C@@H](CCC(=O)O)C(=O)N[C@@H](CCCCN)C(=O)N[C@@H](CC(N)=O)C(=O)N[C@@H](CCCCN)C(=O)N[C@@H](CCCNC(=N)N)C(=O)N[C@H](C(=O)N[C@@H](CC(C)C)C(=O)N[C@@H](CCC(=O)O)C(=O)N[C@@H](CCCNC(=N)N)C(=O)N[C@H](C(N)=O)C(C)C)[C@@H](C)CC)[C@@H](C)CC)[C@@H](C)CC)C(C)C)C(C)C [compound 174] (H-IVLSLD[dV]PIKLK([AEEA-AEEA-γGlu-γGlu-C18 diacid])QILLKQARQK[Aib]QRAQAEKNKRILERV-NH2; N-terminus assumed)
0.59 | 0.03 | 3.13 | CC[C@H](C)[C@H](N)C(=O)N[C@H](C(=O)N[C@@H](CC(C)C)C(=O)N[C@@H](CO)C(=O)N[C@@H](CC(C)C)C(=O)N[C@@H](CC(=O)O)C(=O)N[C@@H](C(=O)N1CCC[C@H]1C(=O)N[C@H](C(=O)N[C@@H](CCCCN)C(=O)N[C@@H](CC(C)C)C(=O)N[C@@H](CCCCNC(=O)CCCCCCCCCCCCCCCCC(=O)O)C(=O)N[C@@H](CCC(N)=O)C(=O)N[C@H](C(=O)N[C@@H](CC(C)C)C(=O)N[C@@H](CC(C)C)C(=O)N[C@@H](CCCCN)C(=O)N[C@@H](CCC(N)=O)C(=O)N[C@@H](CCC(=O)O)C(=O)N[C@@H](CCCNC(=N)N)C(=O)N[C@@H](CCC(N)=O)C(=O)N[C@@H](CCCCN)C(=O)NC(C)(C)C(=O)N[C@@H](CCC(N)=O)C(=O)N[C@@H](CCCNC(=N)N)C(=O)N[C@@H](CCC(=O)O)C(=O)N[C@@H](CCC(N)=O)C(=O)N[C@@H](C)C(=O)N[C@@H](CCC(=O)O)C(=O)N[C@@H](CCCCN)C(=O)N[C@@H](CC(N)=O)C(=O)N[C@@H](CCCCN)C(=O)N[C@@H](CCC(N)=O)C(=O)N[C@H](C(=O)N[C@@H](CC(C)C)C(=O)N[C@@H](C)C(=O)N[C@@H](CCC(N)=O)C(=O)N[C@H](C(N)=O)C(C)C)[C@@H](C)CC)[C@@H](C)CC)[C@@H](C)CC)C(C)C)C(C)C [compound 182] (H-IVLSLD[dV]PIKLK(C18 diacid)QILLKQERQK[Aib]QREQAEKNKQILAQV-NH2; N-terminus assumed)
1.12 | 0.12 | 1.58 | CC[C@H](C)[C@H](N)C(=O)N[C@H](C(=O)N[C@@H](CC(C)C)C(=O)N[C@@H](CO)C(=O)N[C@@H](CC(C)C)C(=O)N[C@@H](CC(=O)O)C(=O)N[C@@H](C(=O)N1CCC[C@H]1C(=O)N[C@H](C(=O)N[C@@H](CCCCN)C(=O)N[C@@H](CC(C)C)C(=O)N[C@@H](CCCCNC(=O)CCCCCCCCCCCCCCCCC(=O)O)C(=O)N[C@@H](CCC(N)=O)C(=O)N[C@H](C(=O)N[C@@H](CC(C)C)C(=O)N[C@@H](CC(C)C)C(=O)N[C@@H](CCCCN)C(=O)N[C@@H](CCC(N)=O)C(=O)N[C@@H](C)C(=O)N[C@@H](CCCNC(=N)N)C(=O)N[C@@H](CCC(N)=O)C(=O)N[C@@H](CCCCN)C(=O)NC(C)(C)C(=O)N[C@@H](CCC(N)=O)C(=O)N[C@@H](CCCNC(=N)N)C(=O)N[C@@H](C)C(=O)N[C@@H](CCC(N)=O)C(=O)N[C@@H](C)C(=O)N[C@@H](CCC(=O)O)C(=O)N[C@@H](CCCCN)C(=O)N[C@@H](CC(N)=O)C(=O)N[C@@H](CCCCN)C(=O)N[C@@H](CCCNC(=N)N)C(=O)N[C@H](C(=O)N[C@@H](CC(C)C)C(=O)N[C@@H](CCC(=O)O)C(=O)N[C@@H](CCCNC(=N)N)C(=O)N[C@H](C(N)=O)C(C)C)[C@@H](C)CC)[C@@H](C)CC)[C@@H](C)CC)C(C)C)C(C)C [compound 183] (H-IVLSLD[dV]PIKLK(C18 diacid)QILLKQARQK[Aib]QRAQAEKNKRILERV-NH2; N-terminus assumed)
0.42 | 0.05 | 2.83 | CC[C@H](C)[C@H](N)C(=O)N[C@H](C(=O)N[C@@H](CC(C)C)C(=O)N[C@@H](CO)C(=O)N[C@@H](CC(C)C)C(=O)N[C@@H](CC(=O)O)C(=O)N[C@@H](C(=O)N1CCC[C@H]1C(=O)N[C@H](C(=O)N[C@@H](CCCCN)C(=O)N[C@@H](CC(C)C)C(=O)N[C@@H](CCCCNC(=O)CCCCCCCCCCCCCCCCC(=O)O)C(=O)N[C@@H](CCC(N)=O)C(=O)N[C@H](C(=O)N[C@@H](CC(C)C)C(=O)N[C@@H](CC(C)C)C(=O)N[C@@H](CCCCN)C(=O)N[C@@H](CCC(N)=O)C(=O)N[C@@H](CCC(=O)O)C(=O)N[C@@H](CCCNC(=N)N)C(=O)N[C@@H](CCC(N)=O)C(=O)N[C@@H](CCCCN)C(=O)N[C@@H](CCCCN)C(=O)N[C@@H](CCC(N)=O)C(=O)N[C@@H](CCCNC(=N)N)C(=O)N[C@@H](CCC(N)=O)C(=O)N[C@@H](CCC(N)=O)C(=O)N[C@@H](C)C(=O)N[C@@H](CCC(=O)O)C(=O)N[C@@H](CCCCN)C(=O)N[C@@H](CC(N)=O)C(=O)N[C@@H](CCCCN)C(=O)N[C@@H](CCC(N)=O)C(=O)N[C@H](C(=O)N[C@@H](CC(C)C)C(=O)N[C@@H](C)C(=O)N[C@@H](CCC(N)=O)C(=O)N[C@H](C(N)=O)C(C)C)[C@@H](C)CC)[C@@H](C)CC)[C@@H](C)CC)C(C)C)C(C)C [compound 184] (H-IVLSLD[dV]PIKLK(C18 diacid)QILLKQERQKKQRQQAEKNKQILAQV-NH2; N-terminus assumed)

— patent US12679878B2, “CRF2 receptor agonists and their use in therapy” (SANOFI, priority 2020, dated 2026)
